# Type: binding
sequence,measurement,value
HPNFSKYILHQR,selectivity for DNT over TNT target,selective for the DNT target

# — patent US8957013B2 (priority 2007, dated 2015)
